Assays:
HepG2 = assay: Cytotoxicity against human HepG2 cells assessed as reduction in cell viability incubated for 24 hrs by colorimetric tetrazolium assay; format: functional, cell-based; settings: HepG2, 24 h
[1] = Hemolytic activity in human erythrocytes incubated for 1 hr by microplate reader; format: functional, cell-based; settings: erythrocyte
Pseudomonas aeruginosa [2] = assay: Antimicrobial activity against Pseudomonas aeruginosa PAO1 assessed as reduction in bacterial growth incubated for 48 hrs by microdilution susceptibility test; format: functional
Escherichia coli [3] = assay: Antimicrobial activity against Escherichia coli ATCC 25922 assessed as reduction in bacterial growth incubated for 48 hrs by microdilution susceptibility test; format: functional
[4] = tested on: Corynebacterium glutamicum; assay: Antimicrobial activity against Corynebacterium glutamicum ATCC 13032 assessed as reduction in bacterial growth incubated for 48 hrs by microdilution susceptibility test; format: functional
Staphylococcus aureus [5] = assay: Antimicrobial activity against Staphylococcus aureus ATCC 9144 assessed as reduction in bacterial growth incubated for 48 hrs by microdilution susceptibility test; format: functional
MRC5 = assay: Cytotoxicity against human MRC5 cells assessed as reduction in cell viability incubated for 24 hrs by colorimetric tetrazolium assay; format: functional, cell-based; settings: MRC5, 24 h
Staphylococcus aureus [6] = assay: Antimicrobial activity against extended spectrum-lactamase-carbapenemas producing Staphylococcus aureus N315 assessed as reduction in bacterial growth incubated for 48 hrs by microdilution method; format: functional
Staphylococcus aureus [7] = assay: Antimicrobial activity against extended spectrum-lactamase-carbapenemas producing Staphylococcus aureus NCTC 10442 assessed as reduction in bacterial growth incubated for 48 hrs by microdilution method; format: functional
Staphylococcus aureus [8] = assay: Antimicrobial activity against extended spectrum-lactamase-carbapenemas producing Staphylococcus aureus strain 85/2082 assessed as reduction in bacterial growth incubated for 48 hrs by microdilution method; format: functional
Staphylococcus aureus [9] = assay: Antimicrobial activity against extended spectrum-lactamase-carbapenemas producing Staphylococcus aureus strain WIS assessed as reduction in bacterial growth incubated for 48 hrs by microdilution method; format: functional
Staphylococcus aureus [10] = assay: Antimicrobial activity against extended spectrum-lactamase-carbapenemas producing Staphylococcus aureus strain IHT 99040 assessed as reduction in bacterial growth incubated for 48 hrs by microdilution method; format: functional
Enterococcus faecium [11] = assay: Antimicrobial activity against extended spectrum-lactamase-carbapenemas producing Enterococcus faecium strain 50673722 assessed as reduction in bacterial growth incubated for 48 hrs by microdilution method; format: functional
Enterococcus faecium [12] = assay: Antimicrobial activity against extended spectrum-lactamase-carbapenemas producing Enterococcus faecium strain 50901530 assessed as reduction in bacterial growth incubated for 48 hrs by microdilution method; format: functional
Enterococcus faecium [13] = assay: Antimicrobial activity against extended spectrum-lactamase-carbapenemas producing Enterococcus faecium strain K36-18 assessed as reduction in bacterial growth incubated for 48 hrs by microdilution method; format: functional
Enterococcus faecium [14] = assay: Antimicrobial activity against extended spectrum-lactamase-carbapenemas producing Enterococcus faecium strain 50758899 assessed as reduction in bacterial growth incubated for 48 hrs by microdilution method; format: functional
Enterococcus faecium [15] = assay: Antimicrobial activity against extended spectrum-lactamase-carbapenemas producing Enterococcus faecium strain TUH.50-22 assessed as reduction in bacterial growth incubated for 48 hrs by microdilution method; format: functional
Escherichia coli [16] = assay: Antimicrobial activity against oxacillinase-producing Escherichia coli 50579417 assessed as reduction in bacterial growth incubated for 48 hrs by microdilution method; format: functional
Escherichia coli [17] = assay: Antimicrobial activity against verona integron-encoded metallo-beta-lactamase-29-producing Escherichia coli 50639799 assessed as reduction in bacterial growth incubated for 48 hrs by microdilution method; format: functional
Escherichia coli [18] = assay: Antimicrobial activity against New Delhi metallo-beta lactamase-1 producing Escherichia coli 50676002 assessed as reduction in bacterial growth incubated for 48 hrs by microdilution method; format: functional
Escherichia coli [19] = assay: Antimicrobial activity against New Delhi metallo-beta lactamase-1 producing Escherichia coli 50739822 assessed as reduction in bacterial growth incubated for 48 hrs by microdilution method; format: functional
Escherichia coli [20] = assay: Antimicrobial activity against imipenem-type carbapenemase-26 producing Escherichia coli 50857972 assessed as reduction in bacterial growth incubated for 48 hrs by microdilution method; format: functional
Pseudomonas aeruginosa [21] = assay: Antimicrobial activity against verona integron-encoded metallo-beta-lactamase-2 producing Pseudomonas aeruginosa K34-7 assessed as reduction in bacterial growth incubated for 48 hrs by microdilution method; format: functional
Pseudomonas aeruginosa [22] = assay: Antimicrobial activity against verona integron-encoded metallo-beta-lactamase-4 producing Pseudomonas aeruginosa K34-73 assessed as reduction in bacterial growth incubated for 48 hrs by microdilution method; format: functional
Pseudomonas aeruginosa [23] = assay: Antimicrobial activity against imipenem-type carbapenemase-14 producing Pseudomonas aeruginosa K44-24 assessed as reduction in bacterial growth incubated for 48 hrs by microdilution method; format: functional
Pseudomonas aeruginosa [24] = assay: Antimicrobial activity against New Delhi metallo-beta lactamase-1 producing Pseudomonas aeruginosa 50692172 assessed as reduction in bacterial growth incubated for 48 hrs by microdilution method; format: functional
Pseudomonas aeruginosa [25] = assay: Antimicrobial activity against verona integron-encoded metallo-beta-lactamase producing Pseudomonas aeruginosa 50692520 assessed as reduction in bacterial growth incubated for 48 hrs by microdilution method; format: functional
[26] = Antimicrobial activity against carbapenemase producing Klebsiella pneumoniae K47-25 assessed as reduction in bacterial growth incubated for 48 hrs by microdilution method; format: functional
[27] = Antimicrobial activity against New Delhi metallo-beta lactamase-1 Klebsiella pneumoniae K66-45 assessed as reduction in bacterial growth incubated for 48 hrs by microdilution method; format: functional
[28] = Antimicrobial activity against New Delhi metallo-beta lactamase-1 and oxacillinase -181 producing Klebsiella pneumoniae 50531633 assessed as reduction in bacterial growth incubated for 48 hrs by microdilution method; format: functional
[29] = Antimicrobial activity against oxacillinase-245 producing Klebsiella pneumoniae 50625602 assessed as reduction in bacterial growth incubated for 48 hrs by microdilution method; format: functional
[30] = Antimicrobial activity against verona integron-encoded metallo-beta-lactamase -1 producing Klebsiella pneumoniae 50667959 assessed as reduction in bacterial growth incubated for 48 hrs by microdilution method; format: functional
Acinetobacter baumannii [31] = assay: Antimicrobial activity against oxacillinase-58 producing Acinetobacter baumannii K12-21 assessed as reduction in bacterial growth incubated for 48 hrs by microdilution method; format: functional
Acinetobacter baumannii [32] = assay: Antimicrobial activity against oxacillinase-23 producing Acinetobacter baumannii K44-35 assessed as reduction in bacterial growth incubated for 48 hrs by microdilution method; format: functional
Acinetobacter baumannii [33] = assay: Antimicrobial activity against oxacillinase-23 producing Acinetobacter baumannii K47-42 assessed as reduction in bacterial growth incubated for 48 hrs by microdilution method; format: functional
Acinetobacter baumannii [34] = assay: Antimicrobial activity against oxacillinase-24 producing Acinetobacter baumannii K55-13 assessed as reduction in bacterial growth incubated for 48 hrs by microdilution method; format: functional
Acinetobacter baumannii [35] = assay: Antimicrobial activity against oxacillinase-23 producing Acinetobacter baumannii K63-58 assessed as reduction in bacterial growth incubated for 48 hrs by microdilution method; format: functional

SMILES	IC50 (HepG2) [µg/mL]	EC50 [1] [µg/mL]	MIC (Pseudomonas aeruginosa [2]) [µg/mL]	MIC (Escherichia coli [3]) [µg/mL]	MIC [4] [µg/mL]	MIC (Staphylococcus aureus [5]) [µg/mL]	IC50 (MRC5) [µg/mL]	MIC (Staphylococcus aureus [6]) [µg/mL]	MIC (Staphylococcus aureus [7]) [µg/mL]	MIC (Staphylococcus aureus [8]) [µg/mL]	MIC (Staphylococcus aureus [9]) [µg/mL]	MIC (Staphylococcus aureus [10]) [µg/mL]	MIC (Enterococcus faecium [11]) [µg/mL]	MIC (Enterococcus faecium [12]) [µg/mL]	MIC (Enterococcus faecium [13]) [µg/mL]	MIC (Enterococcus faecium [14]) [µg/mL]	MIC (Enterococcus faecium [15]) [µg/mL]	MIC (Escherichia coli [16]) [µg/mL]	MIC (Escherichia coli [17]) [µg/mL]	MIC (Escherichia coli [18]) [µg/mL]	further results
N=C(N)NCCCCN1C(=O)N(CCCCNC(=N)N)C(=O)C(Cc2cc(C(F)(F)F)cc(C(F)(F)F)c2)(Cc2cc(C(F)(F)F)cc(C(F)(F)F)c2)C1=O.O=C(O)C(F)(F)F.O=C(O)C(F)(F)F	19	98	8	2	2	2	29	2	2	2	2	2	2	2	4	4	2	8	4	4	MIC (Escherichia coli [19]): 8 µg/mL; MIC (Escherichia coli [20]): 4 µg/mL; MIC (Pseudomonas aeruginosa [21]): 16 µg/mL; MIC (Pseudomonas aeruginosa [22]): 16 µg/mL; MIC (Pseudomonas aeruginosa [23]): 16 µg/mL; MIC (Pseudomonas aeruginosa [24]): 16 µg/mL; MIC (Pseudomonas aeruginosa [25]): 16 µg/mL; MIC [26]: 16 µg/mL; MIC [27]: 16 µg/mL; MIC [28]: 16 µg/mL; MIC [29]: 8 µg/mL; MIC [30]: 16 µg/mL; MIC (Acinetobacter baumannii [31]): 16 µg/mL; MIC (Acinetobacter baumannii [32]): 16 µg/mL; MIC (Acinetobacter baumannii [33]): 16 µg/mL; MIC (Acinetobacter baumannii [34]): 16 µg/mL; MIC (Acinetobacter baumannii [35]): 16 µg/mL
CC(C)(C)c1cc(CC2(Cc3cc(C(C)(C)C)cc(C(C)(C)C)c3)C(=O)N(CCCCN)C(=O)N(CCCCN)C2=O)cc(C(C)(C)C)c1.O=C(O)C(F)(F)F.O=C(O)C(F)(F)F	2	< 5	4	2	0.25	1	1	2	2	2	2	2	2	2	2	2	2	4	4	8	MIC (Escherichia coli [19]): 4 µg/mL; MIC (Escherichia coli [20]): 4 µg/mL; MIC (Pseudomonas aeruginosa [21]): 8 µg/mL; MIC (Pseudomonas aeruginosa [22]): 16 µg/mL; MIC (Pseudomonas aeruginosa [23]): 8 µg/mL; MIC (Pseudomonas aeruginosa [24]): 8 µg/mL; MIC (Pseudomonas aeruginosa [25]): 8 µg/mL; MIC [26]: 16 µg/mL; MIC [27]: 8 µg/mL; MIC [28]: 8 µg/mL; MIC [29]: 8 µg/mL; MIC [30]: 8 µg/mL; MIC (Acinetobacter baumannii [31]): 4 µg/mL; MIC (Acinetobacter baumannii [32]): 4 µg/mL; MIC (Acinetobacter baumannii [33]): 4 µg/mL; MIC (Acinetobacter baumannii [34]): 4 µg/mL; MIC (Acinetobacter baumannii [35]): 4 µg/mL

From ChEMBL document CHEMBL5055633, “Amphipathic Barbiturates as Mimics of Antimicrobial Peptides and the Marine Natural Products Eusynstyelamides with Activity against Multi-resistant Clinical Isolates” (J Med Chem, 2021)
